Data reported in patent publication US20090130261A1, “Vit-A-Cup” (priority 2007, published 2009).
Where two headings read alike, the source gives them in different places.

Key:
[1] = solubility characteristics of additives
From the text: (§1) The differing chemical characteristics of the various additives require each ingredient or blend of ingredients to be dissolved or suspended in a customized matrix in order to ensure desired delivery of the additive in question. […] A number of characteristics were studied for each desired additive compound or complex, such as the degree of chemical affinity to water, solubility rates in various solvents and at various levels of pH, and degradation rates upon exposure to various environmental factors including oxygen levels in ambient air and temperature, as well as individual tolerance to extreme shifts in pH levels.
This is accomplished, for example, in a suspension of 3% Xanthan gum and 0.5% Noveon Carbopol Carbomer in distilled water with 20% Ethanol (to aid in speeding the drying time). This solution is then sprayed on to the interior of the cup and allowed to dry. […] Again, this would be delivered in a flavor-masked suspension of 3% Xanthan gum and 0.5% Noveon Carbopol Carbomer.

[2] = compatibility and stability of additives dissolved or suspended in water-based polyacrylic acid carbomer matrixes; details: for compatibility in carrier matrix: short term
From the text: as §1

[3] = dissolved or suspended in water-based polyacrylic acid carbomer matrixes
[4] = require suspension prior to administration to the cup

Row | Molecule | stability in carrier matrix [2] | compatibility in carrier matrix [2, 3] | further results
1 | [Mo] [Molybdenum] | – | – | solubility [1]: Insoluble
2 | Nc1nc2ncc(CNc3ccc(C(=O)N[C@@H](CCC(=O)O)C(=O)O)cc3)nc2c(=O)[nH]1 [Folic Acid] | – | – | solubility [1]: Insoluble
3 | N[C@@H](CO)C(=O)O [Serine] | stable | compatible | –
4 | NCCCC[C@H](N)C(=O)O [Lysine] | stable | compatible | –
5 | Cyanocobalamin [Vitamin B12] | stable | compatible | –
6 | NC(=O)CC[C@H](N)C(=O)O [Glutamine] | stable | compatible | –
7 | [K+] [Potassium] | – | – | solubility [1]: Insoluble
8 | [Mn+2] [Manganese] | – | – | solubility [1, 4]: Insoluble
9 | N[C@@H](CS)C(=O)O [Cysteine] | stable | compatible | –
10 | COC1=C(OC)C(=O)C(C/C=C(\C)CC/C=C(\C)CC/C=C(\C)CC/C=C(\C)CC/C=C(\C)CC/C=C(\C)CC/C=C(\C)CC/C=C(\C)CC/C=C(\C)CCC=C(C)C)=C(C)C1=O [Coenzyme Q10] | – | – | solubility [1, 4]: Insoluble
11 | [Se] [Selenium] | – | – | solubility [1, 4]: Insoluble
12 | Nc1ccc(C(=O)O)cc1 [PABA, Para-Aminobenzoic Acid] | – | – | solubility [1, 4]: Insoluble
13 | Vitamin D | – | – | solubility [1, 4]: Insoluble
14 | N[C@@H](Cc1ccc(O)cc1)C(=O)O [Tyrosine] | stable | compatible | –
15 | Iodine | – | – | solubility [1, 4]: Insoluble
16 | Vitamin K | – | – | solubility [1]: Insoluble

Row | Molecule | stability in carrier matrix [2] | compatibility in carrier matrix [2, 3] | further results
17 | Cc1cc2nc3c(=O)[nH]c(=O)nc-3n(C[C@H](O)[C@H](O)[C@H](O)CO)c2cc1C [Vitamin B2, Riboflavin] | stable | compatible | –
18 | N[C@@H](Cc1ccccc1)C(=O)O [Phenylalanine] | stable | compatible | –
19 | C[N+](C)(C)CCO [Choline] | stable | – | –
20 | O=C(O)CCCC[C@@H]1SC[C@@H]2NC(=O)N[C@@H]21 [Biotin] | stable | compatible | –
21 | N[C@@H](Cc1c[nH]cn1)C(=O)O [Histidine] | stable | compatible | –
22 | Vitamin E | – | – | solubility [1]: Insoluble
23 | [Cu] [Copper] | – | – | solubility [1]: Insoluble
24 | C[C@H](N)C(=O)O [Alanine] | stable | compatible | –
25 | CC1=C(/C=C/C(C)=C/C=C/C(C)=C/C=C/C=C(C)/C=C/C=C(C)/C=C/C2=C(C)CCCC2(C)C)C(C)(C)CCC1 [Vitamin A, Beta-Carotene] | stable | compatible | –
26 | [Zn] [Zinc] | – | – | solubility [1, 4]: Insoluble
27 | [Mg+2] [Magnesium] | – | – | solubility [1, 4]: Insoluble
28 | C[C@@H](O)[C@H](N)C(=O)O [Threonine] | stable | compatible | –
29 | O=C(O)[C@@H]1CCCN1 [Proline] | stable | compatible | –
30 | N=C(N)NCCC[C@H](N)C(=O)O [Arginine] | stable | compatible | –
31 | [Cr] [Chromium] | – | – | solubility [1, 4]: Insoluble
32 | N[C@@H](Cc1c[nH]c2ccccc12)C(=O)O [Tryptophan] | stable | compatible | –

Continued, in another order:

Row | stability in carrier matrix [2] | compatibility in carrier matrix [2, 3] | Molecule | further results
33 | stable | compatible | CC[C@H](C)[C@H](N)C(=O)O [Isoleucine] | –
34 | stable | compatible | NCC(=O)O [Glycine] | –
35 | stable | compatible | Cc1ncc(C[n+]2csc(CCO)c2C)c(N)n1 [Vitamin B1, Thiamine] | –
36 | stable | compatible | CSCC[C@H](N)C(=O)O [Methionine] | –
37 | stable | compatible | NC(=O)C[C@H](N)C(=O)O [Asparagine] | –
38 | stable | compatible | CC(C)(CO)[C@@H](O)C(=O)NCCC(=O)O [Vitamin B5, Pantothenic Acid] | –
39 | – | compatible | N[C@@H](CCC(=O)O)C(=O)O [Glutamic acid] | stability in carrier matrix ([2]; dissolved or suspended in water-based polyacrylic acid carbomer matrixes, longer term): stable
40 | stable | compatible | Cc1ncc(CO)c(CO)c1O [Vitamin B6, Pyridoxine] | –
41 | stable | compatible | N[C@@H](CC(=O)O)C(=O)O [Aspartic acid] | –
42 | stable | compatible | CC(C)C[C@H](N)C(=O)O [Leucine] | –
43 | stable | compatible | CC(C)[C@H](N)C(=O)O [Valine] | –
